Results on 14 compounds are retold here after patent US11147272B2, “Pyridone compounds and agricultural and horticultural fungicides comprising the same as active ingredients” (MITSUI CHEMICALS AGRO, INC., priority 2017, dated 2021).

A value given as a limit tells only on which side of the number the result lay.

Assay [1] concerns Blumeria graminis f. sp. hordei. Kind of assay: Test Example D: Powdery mildew on barley. As to conditions: for pest or weed control at 250 µg/mL / pest or weed control at 250 ppm: Blumeria graminis, in Hordeum vulgare, topical, read-out: Test D control value; for Test D control value class: Powdery mildew on barley, class of control value.
Assay [2] deals with Puccinia recondita. The assay can be described thus: Test Example E: Brown rust on wheat. The assay is classed as in vivo. As to conditions: for pest or weed control at 250 µg/mL / pest or weed control at 250 ppm: Puccinia recondita, topical; for pest or weed control at 250 µg/mL / Test E control value class: Brown rust on wheat; for pest or weed control at 250 µg/mL: control value class, read-out: Test E control value; for pest or weed control at 250 ppm: 250 ppm drug solution sprayed on test plant; for Test E control value class: class of control value.

For assay [3], the system named is Phytophthora infestans. Kind of assay: whole plant or invertebrate. It counts as in vivo. As to conditions: for pest or weed control at 250 µg/mL / pest or weed control at 250 ppm: Phytophthora infestans, in Solanum lycopersicum, topical, read-out: Test F control value; for Test F control value class: Late blight on tomato, class of control value.
The subject of assay [4] is Plasmopara viticola. Kind of assay: Test Example G: Downy mildew on vine. As to conditions: for pest or weed control at 250 ppm: Plasmopara viticola, topical, 168 h, read-out: Test G control value; for Test G control value class: Downy mildew on vine (Neomuscat), 250 ppm spray, 2.5 ml/pot, assessed 7 to 10 days after inoculation.
Assay [5] deals with Colletotrichum orbiculare. The assay can be described thus: Test Example H: Anthracnose on cucumber. As to conditions: for pest or weed control at 250 ppm: Colletotrichum orbiculare, in Cucumis sativus, topical, 144 h, read-out: Test H control value; for Test H control value class: Anthracnose on cucumber (Sagami Hanjiro), 250 ppm spray, 2.5 ml/pot, assessed 6 to 10 days after inoculation.

Assay [6] concerns Alternaia brassicicola. Kind of assay: Test Example C: Alternaria sooty spot on cabbage. As to conditions: for pest or weed control at 250 µg/mL: Brassica oleracea, control value class, read-out: Test C control value; for pest or weed control at 250 µg/mL / pest or weed control at 250 ppm: topical; for pest or weed control at 250 µg/mL / Test C control value class: Alternaria sooty spot on cabbage; for pest or weed control at 250 ppm: 250 ppm drug solution sprayed on test plant; for Test C control value class: class of control value. The assay is classed as in vivo. An excerpt:
Seeds of a test plant (cabbage variety: Shikidori) were planted and cultivated until the cotyledons extended.
<Control Value> Control value=100{1−(n/3)}

Assay [7] has as its system Botrytis cinerea. The assay can be described thus: Test Example B: Gray mold on tomato. As to conditions: for pest or weed control at 250 µg/mL / pest or weed control at 250 ppm: Botrytis cinerea, in Solanum lycopersicum, topical, read-out: Test B control value; for Test B control value class: Gray mold on tomato, class of control value.
Assay [8] relates to Magnaporthe grisea. Kind of assay: whole plant or invertebrate. It counts as in vivo. As to conditions: for pest or weed control at 250 µg/mL / pest or weed control at 250 ppm: Pyricularia oryzae, in Oryza sativa, read-out: Test A control value; for Test A control value class: Blast on rice, class of control value.

For the compound `CCn1c(-c2c(F)cccc2F)c(C(C)(OC)C(C)C)cc(Cl)c1=O` (stereo not shown) [Compound No. 187, 3-chloro-6-(2,6-difluorophenyl)-1-ethyl-5-(2-methoxy-3-methylbutan-2-yl)pyridin-2(1H)-one], the pest or weed control at 250 µg/mL in assay [1] was over 50%; in assay [2], over 50%; in assay [3], under 50%; in assay [6] it was over 50%; in assay [7], over 50%; in assay [8] it was over 50%. The pest or weed control at 250 ppm in assay [4] and in assay [5] was over 50% throughout.
Take `CCn1c(-c2c(F)cc(F)cc2F)c(C=O)cc(Cl)c1=O` [Compound No. 289, 5-chloro-1-ethyl-6-oxo-2-(2,4,6-trifluorophenyl)-1,6-dihydropyridine-3-carbaldehyde]: the pest or weed control at 250 µg/mL in assay [1] was under 50%; in assay [2], over 50%; in assay [3] it was under 50%; in assay [6], over 50%; in assay [7] it was over 50%; in assay [8] it was under 50%. Further, the values for the pest or weed control at 250 ppm in assay [4] and in assay [5] were under 50% and over 50%, respectively.
Take `CCn1c(-c2ccc(F)cc2Cl)c(C=C(C)C)cc(Cl)c1=O` [Compound No. 300, 3-chloro-6-(2-chloro-4-fluorophenyl)-1-ethyl-5-(2-methyl-1-propenyl)pyridin-2(1H)-one]: the pest or weed control at 250 µg/mL in assay [1] is over 50%; in assay [2] it was over 50%; in assay [3], under 50%; in assay [6] it was over 50%; in assay [7] it was over 50%; in assay [8] it was over 50%. The pest or weed control at 250 ppm is under 50% in assay [4] and over 50% in assay [5].
For the compound `CCCc1cc(Br)c(=O)n(C)c1-c1ccc(F)cc1Cl` [Compound No. 333, 3-bromo-6-(2-chloro-4-fluorophenyl)-1-methyl-5-propylpyridin-2(1H)-one], the pest or weed control at 250 µg/mL in assay [1] is under 50%; in assay [2], over 50%; in assay [3] it was under 50%; in assay [6], over 50%; in assay [7] it was over 50%; in assay [8] it was over 50%. Besides, the pest or weed control at 250 ppm was under 50% in assay [4] and over 50% in assay [5].
`CCCc1cc(C)c(=O)n(C)c1-c1ccc(F)cc1Cl` [Compound No. 339, 6-(2-chloro-4-fluorophenyl)-1,3-dimethyl-5-propylpyridin-2(1H)-one]: the pest or weed control at 250 µg/mL is over 50% in assay [1]; over 50% in assay [2]; under 50% in assay [3]; under 50% in assay [6]; over 50% in assay [7]; over 50% in assay [8]. The pest or weed control at 250 ppm in assay [4] and in assay [5] was over 50% in each case.
`CCn1c(-c2c(F)cc(F)cc2F)c(C(O)C(F)(F)F)cc(Cl)c1=O` (stereo not shown) [Compound No. 515, 3-chloro-1-ethyl-5-(2,2,2-trifluoro-1-hydroxyethyl)-6-(2,4,6-trifluorophenyl)pyridin-2(1H)-one]: the pest or weed control at 250 ppm was under 50% in assay [1]; over 50% in assay [2]; under 50% in assay [3]; over 50% in assay [4]; over 50% in assay [5]; under 50% in assay [6]. Moreover, the pest or weed control at 250 ppm in assay [7] and in assay [8] was over 50% throughout.
Take `CCn1c(-c2c(F)cc(F)cc2F)c(C(OC)C(F)(F)F)cc(Cl)c1=O` (stereo not shown) [Compound No. 516, 3-Chloro-1-ethyl-5-(2,2,2-trifluoro-1-methoxyethyl)-6-(2,4,6-trifluorophenyl)pyridin-2(1H)-one]: the pest or weed control at 250 ppm in assay [1] is over 50%; in assay [2], over 50%; in assay [3], under 50%; in assay [4], over 50%; in assay [5] it was over 50%; in assay [6], over 50%. The pest or weed control at 250 ppm in assay [7] and in assay [8] was over 50% throughout.
Regarding `CCn1c(-c2c(F)cc(OC)cc2F)c(C(OC)C(F)(F)F)cc(Cl)c1=O` (stereo not shown) [Compound No. 518, 3-chloro-6-(2,6-difluoro-4-methoxyphenyl)-1-ethyl-5-(2,2,2-trifluoro-1-methoxyethyl)pyridin-2(1H)-one], the pest or weed control at 250 ppm is over 50% in assay [1]; over 50% in assay [2]; under 50% in assay [3]; under 50% in assay [4]; over 50% in assay [5]; over 50% in assay [6]. For the same compound, the pest or weed control at 250 ppm in assay [7] and in assay [8] was over 50% each time.
On to `Cc1ccc(=O)n(C)c1-c1c(F)cccc1F` [compound 3], for which the “Test D control value class” value in assay [1] is “L (50% or less control value)”. In assay [2], the “Test E control value class” value is given as “L (50% or less control value)”. The “Test F control value class” value in assay [3] was “L (50% or less control value)”. In addition, the “Test G control value class” value in assay [4] is on record as “L (50% or less control value)”. Further, in assay [5], the “Test H control value class” value is “L (50% or less control value)”. Further, the “Test C control value class” value in assay [6] was “H (more than 50% control value)”. Also, the “Test B control value class” value in assay [7] was “L (50% or less control value)”. In assay [8], the “Test A control value class” value was “L (50% or less control value)”.
Regarding `Cc1cc(Cl)c(=O)n(C)c1-c1c(F)cccc1F` [compound 4], in assay [1], the “Test D control value class” value is “L (50% or less control value)”. Moreover, the “Test E control value class” value in assay [2] is recorded as “L (50% or less control value)”. In assay [3], the “Test F control value class” value is on record as “H (more than 50% control value)”. Moreover, in assay [4], the “Test G control value class” value was “L (50% or less control value)”. For the same compound, in assay [5], the “Test H control value class” value is “L (50% or less control value)”. The “Test C control value class” value in assay [6] is recorded as “H (more than 50% control value)”. In addition, the “Test B control value class” value in assay [7] is recorded as “L (50% or less control value)”. The “Test A control value class” value in assay [8] was “H (more than 50% control value)”.
Turning to `CCn1c(-c2c(F)cccc2F)c(C(C)C)ccc1=O` [compound 5], the “Test D control value class” value in assay [1] is “H (more than 50% control value)”. In addition, the “Test E control value class” value in assay [2] was “H (more than 50% control value)”. For the same compound, the “Test F control value class” value in assay [3] is recorded as “L (50% or less control value)”. For the same compound, the “Test G control value class” value in assay [4] was “L (50% or less control value)”. Moreover, the “Test H control value class” value in assay [5] is “H (more than 50% control value)”. Moreover, the “Test C control value class” value in assay [6] is “H (more than 50% control value)”. Further, the “Test B control value class” value in assay [7] was “H (more than 50% control value)”. The “Test A control value class” value in assay [8] is “H (more than 50% control value)”.
As to `CCn1c(-c2c(F)cccc2F)c(C(C)C)cc(Cl)c1=O` [compound 6], the “Test D control value class” value in assay [1] is given as “H (more than 50% control value)”. Also, the “Test E control value class” value in assay [2] is listed as “H (more than 50% control value)”. For the same compound, in assay [3], the “Test F control value class” value was “L (50% or less control value)”. Moreover, in assay [4], the “Test G control value class” value is recorded as “L (50% or less control value)”. The “Test H control value class” value in assay [5] is “H (more than 50% control value)”. Moreover, the “Test C control value class” value in assay [6] is “H (more than 50% control value)”. For the same compound, the “Test B control value class” value in assay [7] is listed as “H (more than 50% control value)”. The “Test A control value class” value in assay [8] is recorded as “H (more than 50% control value)”.
Turning to `CCn1c(-c2c(F)cc(F)cc2F)c(C(C)C)cc(Br)c1=O` [compound 9], the “Test D control value class” value in assay [1] was “H (more than 50% control value)”. Also, the “Test E control value class” value in assay [2] was “H (more than 50% control value)”. Also, the “Test F control value class” value in assay [3] is “L (50% or less control value)”. Besides, the “Test G control value class” value in assay [4] is “H (more than 50% control value)”. Further, the “Test H control value class” value in assay [5] was “H (more than 50% control value)”. Moreover, in assay [6], the “Test C control value class” value is given as “H (more than 50% control value)”. The “Test B control value class” value in assay [7] is recorded as “H (more than 50% control value)”. In addition, the “Test A control value class” value in assay [8] is recorded as “H (more than 50% control value)”.
`CCn1c(-c2c(F)cc(OC)cc2F)c(C(C)C)cc(Br)c1=O` [compound 12]: in assay [1], the “Test D control value class” value is “H (more than 50% control value)”. Further, the “Test E control value class” value in assay [2] is “H (more than 50% control value)”. In assay [3], the “Test F control value class” value was “L (50% or less control value)”. For the same compound, the “Test G control value class” value in assay [4] is reported as “H (more than 50% control value)”. The “Test H control value class” value in assay [5] is reported as “H (more than 50% control value)”. The “Test C control value class” value in assay [6] was “H (more than 50% control value)”. For the same compound, the “Test B control value class” value in assay [7] is “H (more than 50% control value)”. In addition, the “Test A control value class” value in assay [8] was “H (more than 50% control value)”.
